The text below walks through data of BindingDB's records for patent US20190276450 (Abbvie, 2019).

pEC50: −log10 of the molar value. Some results are limits rather than exact numbers.

The target in experiment [1] is Non-receptor tyrosine-protein kinase TYK2 (Homo sapiens, UniProt P29597). The experiment in a line: TYK2 (TYK2/JAK2 PSTAT4 T-BLAST) Alpha Screen Assay. As to the method:
IL-12 is known to transduce its signal through IL-12 receptor via Jak2 and/or Tyk2. For that reason, the activity against Tyk2/Jak2 was measured by determining the inhibition of IL-12 induced phosphorylation of STAT4 in T-blast cells. […] See, e.g., Sohn et al., J. Immunology (2013) 2205-2216.

The target of experiment [2] is Tyrosine-protein kinase JAK1 (Homo sapiens, UniProt P23458). The experiment can be described thus: JAK1 (PSTAT3 TF1) Alpha Screen Assay. The procedure: IL-6 is known to transduce its signal through IL-6 receptor via Jak1. Activity against Jak was therefore measured by determining inhibition of IL-6 induced phosphorylation of STAT3 in TF1 cells. From these tests, the EC50 (effective concentration for 50% maximal response) values were determined in 1 μM for the test compounds.
Chain of Tyrosine-protein kinase JAK1 (P23458 whole entry): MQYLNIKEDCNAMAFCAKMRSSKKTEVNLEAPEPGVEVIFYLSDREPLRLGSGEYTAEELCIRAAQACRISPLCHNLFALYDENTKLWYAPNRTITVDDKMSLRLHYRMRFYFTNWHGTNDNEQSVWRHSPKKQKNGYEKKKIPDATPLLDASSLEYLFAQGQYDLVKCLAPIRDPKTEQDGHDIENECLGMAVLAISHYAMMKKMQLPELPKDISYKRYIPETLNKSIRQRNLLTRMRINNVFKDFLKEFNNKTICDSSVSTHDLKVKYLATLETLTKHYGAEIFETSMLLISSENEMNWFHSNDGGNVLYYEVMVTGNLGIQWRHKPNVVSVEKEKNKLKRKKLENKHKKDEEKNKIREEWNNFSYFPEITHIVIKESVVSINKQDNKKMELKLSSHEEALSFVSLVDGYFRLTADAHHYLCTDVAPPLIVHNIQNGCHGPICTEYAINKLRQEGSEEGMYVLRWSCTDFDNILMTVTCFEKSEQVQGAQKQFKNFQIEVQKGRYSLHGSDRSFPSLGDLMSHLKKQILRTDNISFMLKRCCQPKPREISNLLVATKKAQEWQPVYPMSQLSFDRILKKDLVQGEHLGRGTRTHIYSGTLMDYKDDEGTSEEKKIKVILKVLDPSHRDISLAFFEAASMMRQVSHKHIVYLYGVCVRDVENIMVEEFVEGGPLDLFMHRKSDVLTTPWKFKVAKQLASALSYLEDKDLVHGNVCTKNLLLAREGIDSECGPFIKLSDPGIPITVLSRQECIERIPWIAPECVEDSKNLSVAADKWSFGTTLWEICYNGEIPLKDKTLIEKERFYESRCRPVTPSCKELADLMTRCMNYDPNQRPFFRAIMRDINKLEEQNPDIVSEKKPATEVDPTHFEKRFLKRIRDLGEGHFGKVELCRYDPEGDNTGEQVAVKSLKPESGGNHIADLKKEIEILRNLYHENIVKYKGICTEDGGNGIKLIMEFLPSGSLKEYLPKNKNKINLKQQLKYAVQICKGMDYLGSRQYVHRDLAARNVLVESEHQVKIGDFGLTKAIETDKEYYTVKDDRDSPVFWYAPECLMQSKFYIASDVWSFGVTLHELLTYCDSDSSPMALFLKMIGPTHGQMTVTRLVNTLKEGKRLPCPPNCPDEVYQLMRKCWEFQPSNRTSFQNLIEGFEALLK

In experiment [3] the target is Tyrosine-protein kinase JAK2 (Homo sapiens, UniProt O60674). The experiment in a line: JAK2 (PSTAT5 UT7) Alpha Screen Assay. The procedure:
Erythropoietin (EPO) is known to transduce its signal through EPO receptor via Jak2. Activity against Jak2 was therefore measured by determining inhibition of EPO induced phosphorylation of […] in UT7 cells. From these tests, the EC50 (effective concentration for 50% maximal response) values were determined in 1 μM for the test compounds.

Chain of Non-receptor tyrosine-protein kinase TYK2 (P29597 whole entry): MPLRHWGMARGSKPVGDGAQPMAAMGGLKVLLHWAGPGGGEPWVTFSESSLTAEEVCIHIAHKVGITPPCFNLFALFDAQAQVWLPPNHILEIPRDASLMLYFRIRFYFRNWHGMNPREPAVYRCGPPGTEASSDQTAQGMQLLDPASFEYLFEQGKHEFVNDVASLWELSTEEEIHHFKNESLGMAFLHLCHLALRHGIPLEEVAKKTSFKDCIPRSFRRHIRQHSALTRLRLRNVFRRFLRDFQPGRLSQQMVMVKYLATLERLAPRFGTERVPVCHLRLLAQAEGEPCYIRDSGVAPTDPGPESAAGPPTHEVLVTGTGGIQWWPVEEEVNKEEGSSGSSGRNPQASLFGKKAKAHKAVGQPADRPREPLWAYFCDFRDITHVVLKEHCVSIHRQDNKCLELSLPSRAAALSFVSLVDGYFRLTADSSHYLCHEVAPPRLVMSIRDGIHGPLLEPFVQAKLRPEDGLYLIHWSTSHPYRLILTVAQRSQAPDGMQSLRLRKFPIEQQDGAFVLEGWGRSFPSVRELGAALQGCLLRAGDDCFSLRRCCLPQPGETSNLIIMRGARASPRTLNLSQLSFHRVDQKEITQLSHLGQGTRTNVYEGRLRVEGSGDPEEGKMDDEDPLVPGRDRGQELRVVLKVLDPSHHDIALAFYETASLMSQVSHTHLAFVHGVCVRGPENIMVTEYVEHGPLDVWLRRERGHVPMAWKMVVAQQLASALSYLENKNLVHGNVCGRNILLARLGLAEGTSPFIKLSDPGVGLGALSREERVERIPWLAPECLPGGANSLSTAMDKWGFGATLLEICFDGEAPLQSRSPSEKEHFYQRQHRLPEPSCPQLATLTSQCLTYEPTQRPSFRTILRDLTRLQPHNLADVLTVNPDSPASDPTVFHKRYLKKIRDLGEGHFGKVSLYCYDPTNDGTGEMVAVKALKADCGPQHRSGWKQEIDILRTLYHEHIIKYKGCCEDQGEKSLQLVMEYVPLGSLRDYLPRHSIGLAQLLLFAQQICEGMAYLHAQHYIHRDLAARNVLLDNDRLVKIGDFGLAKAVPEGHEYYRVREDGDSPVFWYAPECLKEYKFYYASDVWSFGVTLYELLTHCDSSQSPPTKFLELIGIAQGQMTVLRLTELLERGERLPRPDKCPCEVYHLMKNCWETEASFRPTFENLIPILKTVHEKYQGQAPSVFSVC
Chain of Tyrosine-protein kinase JAK2 (O60674 whole entry): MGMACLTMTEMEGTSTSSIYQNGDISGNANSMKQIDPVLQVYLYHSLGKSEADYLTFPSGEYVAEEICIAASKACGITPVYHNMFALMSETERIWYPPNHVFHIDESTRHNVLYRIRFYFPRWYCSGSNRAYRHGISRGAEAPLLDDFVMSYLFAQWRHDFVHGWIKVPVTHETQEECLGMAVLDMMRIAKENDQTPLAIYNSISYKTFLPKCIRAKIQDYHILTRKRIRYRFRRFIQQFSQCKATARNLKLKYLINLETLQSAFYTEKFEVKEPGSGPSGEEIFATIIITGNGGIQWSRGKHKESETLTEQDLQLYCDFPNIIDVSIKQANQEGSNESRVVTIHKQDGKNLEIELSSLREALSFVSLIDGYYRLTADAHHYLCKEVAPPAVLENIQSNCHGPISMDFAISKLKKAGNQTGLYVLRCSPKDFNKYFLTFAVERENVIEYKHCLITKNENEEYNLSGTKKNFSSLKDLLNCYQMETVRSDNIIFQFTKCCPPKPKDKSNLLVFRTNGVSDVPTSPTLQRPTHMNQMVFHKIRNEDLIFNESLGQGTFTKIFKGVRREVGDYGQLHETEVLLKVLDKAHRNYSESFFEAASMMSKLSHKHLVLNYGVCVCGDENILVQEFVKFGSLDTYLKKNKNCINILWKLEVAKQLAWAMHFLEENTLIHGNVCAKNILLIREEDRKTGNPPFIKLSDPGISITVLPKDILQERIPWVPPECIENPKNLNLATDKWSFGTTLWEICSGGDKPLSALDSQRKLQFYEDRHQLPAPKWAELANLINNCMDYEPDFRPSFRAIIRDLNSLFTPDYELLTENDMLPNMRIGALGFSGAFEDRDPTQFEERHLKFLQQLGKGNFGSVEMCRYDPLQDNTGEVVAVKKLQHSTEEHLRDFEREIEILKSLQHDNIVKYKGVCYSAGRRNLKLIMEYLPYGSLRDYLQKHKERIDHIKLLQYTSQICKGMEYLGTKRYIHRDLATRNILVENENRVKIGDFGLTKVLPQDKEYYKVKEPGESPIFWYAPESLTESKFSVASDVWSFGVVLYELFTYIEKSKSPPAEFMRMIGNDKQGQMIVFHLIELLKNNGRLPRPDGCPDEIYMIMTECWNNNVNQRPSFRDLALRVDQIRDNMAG

Take `CO[C@@]1(c2cccc(-c3cn([C@@H]4CC4(F)F)c4cnc(NC(N)=O)cc34)n2)CCOC1` [US20190276450, Example 1.2]: the pEC50 (as a rule, −log10 of the EC50, conventionally taken in molar units) in experiment [1] is 7.35; in experiment [2] it was 4.87; in experiment [3] it was less than 4.60.
The matching figures for `CO[C@@]1(c2cccc(-c3cn(C)c4cnc(NC(N)=O)cc34)n2)CCOC1` [US20190276450, Example 1]: 7.23, 5.26 and less than 4.60.
Turning to `CO[C@@]1(c2cc(C)cc(-c3cn(C)c4cnc(NC(N)=O)cc34)n2)CCOC1` [US20190276450, Example 1b.2], the negative-log EC50 (pEC50) in experiment [1] is 7.60; in experiment [2] it was 4.68; in experiment [3], less than 4.60.
For the compound `COC1(c2cccc(-c3cn(C)c4cnc(NC(N)=O)cc34)n2)COC1` [US20190276450, Example 1b.4], the figures for the pEC50 in experiment [1], in experiment [2] and in experiment [3] were 6.85, 5.12 and less than 4.60, respectively.
For `Cn1cc(-c2cncc([C@]3(C)CCOC3)n2)c2cc(NC(N)=O)ncc21` [US20190276450, Example 1b.5], the negative logarithm of the EC50 (pEC50) is 7.74 in experiment [1], 5.82 in experiment [2] and less than 4.60 in experiment [3].
As for `Cn1cc(-c2cncc([C@@]3(C)CCOC3)n2)c2cc(NC(N)=O)ncc21` [US20190276450, Example 1b.6], the negative logarithm of the EC50 (pEC50) in experiment [1] was 6.71; in experiment [2], 5.38; in experiment [3], less than 4.60.
For `CO[C@@]1(c2cc(C)cc(-c3cn(C)c4cnc(NC(C)=O)cc34)n2)CCOC1` [US20190276450, Example 2.2] the same measures were 6.70, 4.39 and less than 4.60.
In the case of `CO[C@@]1(c2cc(C(F)F)cc(-c3cn(C)c4cnc(NC(C)=O)cc34)n2)CCOC1` [US20190276450, Example 2.8], the pEC50 in experiment [1] is 7.38; in experiment [2], 4.77; in experiment [3], less than 4.60.
As to `CC[C@]1(c2cc(C#N)cc(-c3cn(C)c4cnc(NC(C)=O)cc34)n2)CCOC1` [US20190276450, Example 2.11], the negative logarithm of the EC50 (pEC50) in experiment [1] was 6.98; in experiment [2], 5.12; in experiment [3] it was less than 4.60.
For `COCc1cc(-c2cn(C)c3cnc(NC(C)=O)cc23)nc([C@]2(OC)CCOC2)c1` [US20190276450, Example 2] the same measures were 6.90, less than 4.40 and less than 4.60.
The matching figures for `CO[C@@]1(c2cc(C#N)cc(-c3cn([C@@H]4CC4(F)F)c4cnc(NC(C)=O)cc34)n2)CCOC1` [US20190276450, Example 2a.3]: 6.90, 4.25 and less than 4.60.
In the case of `CC[C@@]1(c2cccc(-c3cn(C)c4cnc(NC(N)=O)cc34)n2)CCOC1` [US20190276450, Example 3.2], the pEC50 is 7.85 in experiment [1], 5.47 in experiment [2] and less than 4.60 in experiment [3].
In the case of `Cn1cc(-c2cccc(C3(O)COC3)n2)c2cc(NC(N)=O)ncc21` [US20190276450, Example 14], the pEC50 is 6.25 in experiment [1] and 4.95 in experiment [2].
As for `NC(=O)Nc1cc2c(-c3cccc(C4(O)COC4)n3)cn([C@@H]3CCOC3)c2cn1` [US20190276450, Example 15], the pEC50 in experiment [1] is 6.04; in experiment [2], 4.14.
Take `CO[C@@]1(c2cc(C)cc(-c3cn([C@H]4C[C@H](C#N)C4)c4cnc(NC(C)=O)cc34)n2)CCOC1` [US20190276450, Example 17.4]: the pEC50 is 6.90 in experiment [1] and 4.70 in experiment [2].
Regarding `CO[C@@]1(c2cc(C)cc(-c3cn([C@H]4C[C@@H](C#N)C4)c4cnc(NC(C)=O)cc34)n2)CCOC1` [US20190276450, Example 17.5], the pEC50 in experiment [1] is 8.30; in experiment [2], 4.49.
With `COc1cc(-c2cn(C)c3cnc(NC(C)=O)cc23)nc([C@]2(OC)CCOC2)c1` [US20190276450, Example 20], the negative-log EC50 (pEC50) in experiment [1] was 6.86; in experiment [2], 4.35.
Regarding `COCc1cc(-c2cn(C)c3cnc(NC(C)=O)cc23)nc([C@@]2(CO)CCOC2)c1` [US20190276450, Example 22a], the negative-log EC50 (pEC50) is 5.92 in experiment [1] and less than 4.60 in experiment [3].
